Data on ten compounds can be found in US4425355A, “Substituted acyl derivatives of chair form of octahydro-1H-indole-2-carboxylic acids” (Warner-Lambert Company, priority 1981, dated 1984).

Structures are written as SMILES. Structures can show the parent of a compound that is named as a salt.

The target in this assay is T1, Angiotensin converting enzyme (ACE) (Cavia porcellus, UniProt H0UWL7).
T1 construct: ACE from guinea pig serum and the test compounds are preincubated for 10 minutes; from tissue; host or cells: guinea pig serum
T1 sequence (H0UWL7 33-1302): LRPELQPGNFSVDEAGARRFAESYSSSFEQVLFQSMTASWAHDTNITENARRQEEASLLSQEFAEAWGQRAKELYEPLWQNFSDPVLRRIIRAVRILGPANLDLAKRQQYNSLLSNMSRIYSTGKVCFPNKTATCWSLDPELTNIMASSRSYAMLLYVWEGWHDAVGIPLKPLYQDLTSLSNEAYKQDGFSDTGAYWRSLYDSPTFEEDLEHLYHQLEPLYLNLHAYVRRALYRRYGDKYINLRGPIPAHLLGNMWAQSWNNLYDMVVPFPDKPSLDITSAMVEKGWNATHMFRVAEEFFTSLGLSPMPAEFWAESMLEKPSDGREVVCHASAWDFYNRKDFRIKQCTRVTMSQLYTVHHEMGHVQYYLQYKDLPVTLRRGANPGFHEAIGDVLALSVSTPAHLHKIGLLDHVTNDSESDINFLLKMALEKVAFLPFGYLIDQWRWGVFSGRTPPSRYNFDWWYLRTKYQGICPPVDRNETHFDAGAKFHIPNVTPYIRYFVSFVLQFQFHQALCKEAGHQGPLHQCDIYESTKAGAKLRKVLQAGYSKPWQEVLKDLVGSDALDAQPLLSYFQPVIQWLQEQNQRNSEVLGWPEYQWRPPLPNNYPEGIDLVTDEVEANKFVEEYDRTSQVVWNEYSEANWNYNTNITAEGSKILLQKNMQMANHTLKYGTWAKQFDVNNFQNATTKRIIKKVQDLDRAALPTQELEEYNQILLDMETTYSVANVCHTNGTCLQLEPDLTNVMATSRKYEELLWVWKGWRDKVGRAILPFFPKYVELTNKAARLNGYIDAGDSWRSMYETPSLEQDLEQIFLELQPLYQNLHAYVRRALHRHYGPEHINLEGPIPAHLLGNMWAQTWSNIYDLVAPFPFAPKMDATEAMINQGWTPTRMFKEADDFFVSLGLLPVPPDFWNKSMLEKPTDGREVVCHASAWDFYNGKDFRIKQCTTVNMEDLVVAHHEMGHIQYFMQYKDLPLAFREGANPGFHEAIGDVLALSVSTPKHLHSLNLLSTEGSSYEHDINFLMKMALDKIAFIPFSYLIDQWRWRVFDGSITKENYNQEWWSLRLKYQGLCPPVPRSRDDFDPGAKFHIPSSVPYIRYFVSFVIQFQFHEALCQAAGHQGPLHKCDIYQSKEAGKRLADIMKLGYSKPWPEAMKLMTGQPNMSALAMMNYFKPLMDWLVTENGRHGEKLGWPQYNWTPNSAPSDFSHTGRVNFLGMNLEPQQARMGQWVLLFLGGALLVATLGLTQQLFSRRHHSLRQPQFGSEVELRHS
The assay can be described thus: In vitro ACE Assay: angiotensin converting enzyme inhibitory activity (guinea pig serum ACE, 3H-hippuryl-glycyl-glycine substrate). The following applies: 10 min preincubation, 60 minute incubation at 37° C., read-out: IC50 (Activity of Compounds of Formula V). In kind it is biochemical. As for the experimental part:
In vitro ACE Assay: Angiotensin converting enzyme (ACE) inhibitory activity is determined by assaying guinea pig serum ACE in the presence and absence of the test compound. ACE from guinea pig serum and the test compounds are preincubated for 10 minutes before the addition of the labelled substrate ^3 H-hippuryl-glycyl-glycine. […] ACE cleaves the hippuryl-glycyl bond to form the dipeptide glycyl-glycine and ^3 H-hippuric acid. The ^3 H-hippuric acid is then extracted with ethyl acetate and the ACE inhibition of a given sample calculated on the basis of the ^3 H-hippuric acid generated.
In general, IC50 refers to the concentration that inhibits the measured activity by half. As to `CCOC(=O)[C@@H]1C[C@@H]2CCCC[C@@H]2N1C(=O)C(C)CSC(C)=O` (relative stereo) [V: R=C2 H5, R1=CH3, R2=CH3 CO, --, Ethyl (2α,3aβ,7aβ)-Octahydro-1-[3-(acetylthio)-2-methylpropanoyl]-1H-indole-2-carboxylate], the 50% inhibitory concentration (IC50) turned out to be 6700 nM. As for `CC(CS)C(=O)N1[C@H](C(=O)O)C[C@@H]2CCCC[C@@H]21` (relative stereo) [V: R=H, R1=CH3, R2=H, --, (2α,3aβ,7aβ)-Octahydro-1-(3-mercapto-2-methylpropanoyl)-1H-indole-2-carboxylic acid], the IC50 was 16 nM.

As to `CC(=O)SCCC(=O)N1[C@H](C(=O)O)C[C@@H]2CCCC[C@@H]21` (relative stereo) [V: R=H, R1=H, R2=CH3 CO, l, (1)-(2α,3aβ,7aβ)-Octahydro-1-[3-(acetylthio)-propanoyl]-1H-indole-2-carboxylic Acid], the IC50 is 480 nM. Then `O=C(O)[C@@H]1C[C@@H]2CCCC[C@@H]2N1C(=O)CCS` (relative stereo) [V: R=H, R1=H, R2=H, l, (1)-(2α,3aβ,7aβ)-Octahydro-1-(3-mercaptopropanoyl)-1H-indole-2-carboxylic Acid], with 6.4 nM; and `CC(CSC(=O)C(C)(C)C)C(=O)N1[C@H](C(=O)O)C[C@@H]2CCCC[C@@H]21` (single isomer, unassigned) [V: R=H, R1=CH3, R2=(CH3)3 CCO, dl, A, (2α,3aβ,7aβ)-Octahydro-1-[3-(2,2-dimethylpropanoylthio)-2-methylpropanoyl]-1H-indole-2-carboxylic Acid], with 170 nM.

Take `CCC(=O)SCC(C)C(=O)N1[C@H](C(=O)O)C[C@@H]2CCCC[C@@H]21` (single isomer, unassigned; diastereomer a) [V: R=H, R1=CH3, R2=CH3 CH2 CO, dl, A, (2α,3aβ,7aβ)-Octahydro-1-[3-(propanoylthio)-2-methylpropanoyl]-1H-indole-2-carboxylic Acid, (Diastereomer A)]: the IC50 was determined as 52 nM.

Take `CC(=O)SCC(C)C(=O)N1[C@H](C(=O)O)C[C@@H]2CCCC[C@@H]21` (single isomer, unassigned; diastereomer a) [V: R=H, R1=CH3, R2=CH3 CO, A, (2α,3aβ,7aβ)-Octahydro-1-[3-(acetylthio)-2-methyl-propanoyl]-1H-indole-2-carboxylic Acid, Diastereomer A]: the IC50 turned out to be 160 nM.

`CC(CS)C(=O)N1[C@H](C(=O)O)C[C@@H]2CCCC[C@@H]21` (single isomer, unassigned; diastereomer a) [V: R=H, R1=CH3, R2=H, dl, A, (2α,3aβ,7aβ)-Octahydro-1-(3-mercapto-2-methylpropanoyl)-1H-indole-2-carboxylic Acid, Diastereomer A]: the IC50 worked out at 7 nM.

`CC(CSC(=O)c1ccccc1)C(=O)N1[C@H](C(=O)O)C[C@@H]2CCCC[C@@H]21` (single isomer, unassigned; diastereomer a) [V: R=H, R1=CH3, R2=PhCO, dl, A, (2α,3aβ,7aβ)-Octahydro-1-[3-(benzoylthio)-2-methylpropaoyl]-1H-indole-2-carboxylic Acid (Diastereomer A) t-Butylamine Salt]: the IC50 was determined as 960 nM. On to `CC(=O)SCC(C)C(=O)N1[C@H](C(=O)O)C[C@@H]2CCCC[C@@H]21` (single isomer, unassigned; diastereomer b) [V: R=H, R1=CH3, R2=CH3 CO, dl, B, (2α,3aβ,7aβ)-Octahydro-1-[3-(acetylthio)-2-methylpropanoyl]-1H-indole-2-carboxylic Acid, Diastereomer B.], for which the IC50 amounted to 1100 nM.
